{
  "source": "patent US7033593B2",
  "about": "“Immunogen comprising an HIV envelope protein, a ligand and H2 peptide” (priority 2000, dated 2006)",
  "key": {"[1]": {"system": "recombinant ADA gp41", "experiment": "SPR binding of HR-2 peptide to immobilized recombinant gp41", "design": "species or system HIV ADA", "method": "FIGS. 16A–16F show constitutive binding of HR-2 peptides to immobilized gp41 and CD4 induced binding to gp140. FIGS. 16A and 16B. Binding of DP178 (12.5 to 100 μg/ml) to immobilized ADA gp41 and CD4-gp140 (FIG. 16B) surfaces. FIGS. 16C and 16D. […] FIGS. 16E and 16F. Scatchard plots of RU vs RU/C for DP178 binding to gp41 (FIG. 16E) and to CD4-gp140 (FIG. 16F). Data are representative of 2 separate experiments.\nBinding of HR-2 peptide to recombinant gp41. To directly determine if HR-2 peptides can constitutively bind to purified gp41, recombinant ADA gp41 was immobilized to a sensor surface and the binding of HR-2 peptide, DP178, determined. […] To compare the binding of DP178 HR-2 peptide to recombinant gp41 versus HIV 89.6 gp140-sCD4 complex, the equilibrium binding contants (Keq) of HR-2 binding to both were measured. While the Keq of DP178 binding to recombinant gp41 was weak at 26.7 μM (FIG. 16E), the Keq of DP178 binding to sCD4-gp140 was 10 fold stronger at 1.7 μM (FIG. 16F)."}, "[2]": {"system": "gp41-gp120-sCD4 complex (ADA gp41, 89.6 gp120)", "experiment": "SPR binding of DP178 to gp41-gp120 and gp41-gp120-sCD4 complexes", "design": "species or system HIV", "details": "DP178 50 μg/ml", "method": "FIGS. 17A and 17B show induction of HR-2 peptide binding to gp120-gp41 complex. […] Soluble 89.6 gp120 (100 μg/ml) or a gp120-CD4 mixture (gp120 pre-incubated with 0.3 mg/ml of CD4 for 30 min) was injected at 5 μl/min for 10 min over a sensor surface immobilized with ADA gp41. At the end of the injections, wash buffer (PBS) was allowed to flow until the surface was stable with no baseline drift. Roughly 300 RU of gp120 and 850 RU of gp120-CD4 formed stable complexes with the immobilized gp41 surface. […] Thus both surfaces were stable and had equivalent amount of associated gp120 or gp120-CD4.\nIn the preparation of HIV 89.6 gp140 envelope, there is uncleaved gp140, and cleaved gp140 components of gp120 and gp41. Thus, it is possible that HR-2 peptide could be induced to bind uncleaved gp140 and/or could be induced to bind to cleaved gp120 and gp41."}},
  "note": "Entries after “also recorded” stand apart in the source; their conditions may differ.",
  "data": [
    {"substance": "enfuvirtide", "values": [
      {"measurement": "binding to immobilized gp41 (in words)", "setting": "[1]; SPR", "value": "bound well"},
      {"measurement": "Kd", "setting": "[1]; Scatchard plot, read-out: Keq (equilibrium binding constant)", "value": 26.7, "unit": "µM"},
      {"measurement": "binding to gp41-gp120(-sCD4) complex compared to gp41 (in words)", "setting": "[2]", "value": "upregulated; also recorded: higher binding"}
    ]}
  ]
}
